US20260028335A1, “NOVEL ISOTHIAZOL-3-YL AND ISOXAZOL-3-YL SULFONAMIDE COMPOUNDS” (Hoffmann-La Roche Inc., priority 2022, published 2026)

Target: human GPR17 short isoform (Homo sapiens, UniProt Q13304)
Assay: GPR17 cAMP assay (hGPR17 cAMP, antagonist mode, TR-FRET)
Assay type: cell-based
Settings: CHO-K1 cells stably expressing human GPR17 short isoform; EC80 of agonist MDL29,951; forskolin 15 μM; IBMX 0.5 mM
Description: GPR17 cAMP Assay Protocol:
CHO-K1 cells stably expressing vector containing untagged human GPR17 short isoform (Roche) were cultured at 37° C./5% CO2 in DMEM (Dulbecco's Modified Eagle Medium):F-12 (1:1) supplemented with 10% foetal bovine serum and 400 μg/ml Geneticin.
Changes in intracellular cyclic adenosine monophosphate (cAMP) levels were quantified using the Nano-TRF Detection Assay kit (Roche Diagnostics, Cat. No. 05214386001). This assay allows for direct cAMP quantification in a homogeneous solution. cAMP is detected based on time-resolved fluorescence energy transfer (TR-FRET) and competitive binding of ruthenylated cAMP and endogenous cAMP to an anti-cAMP monoclonal antibody labeled with AlexaFluor-700. The Ruthenium complex serves as the FRET donor and transfers energy to AlexaFluor-700. The FRET signal is inversely proportional to the cAMP concentration.
CHO-GPR17S cells were detached with Accutase and resuspended in assay buffer consisting of Hank's Balanced Salt Solution (HBSS), 10 mM HEPES (4-(2-hydroxyethyl) piperazine-1-ethanesulfonic acid solution) and 0.1% bovine serum albumin (pH 7.4). The cells were seeded in black 384-well plates (Corning) at a density of 10,000 cells/20 μl assay buffer until the addition of compounds.
Test antagonist compounds were serially diluted in dimethyl sulfoxide (DMSO) and spotted in 384-well plates. The compounds were then diluted in HBSS buffer supplemented with an EC80 concentration of MDL29,951 (3-(2-Carboxy-4,6-dichloroindol-3-yl)propionic acid) (GPR17 agonist) plus 3-Isobutyl-1-methylxanthine (IBMX) (0.5 mM final concentration) and added to the cells at room temperature. Forskolin (15 μM final concentration) was added 5 minutes after the test compounds and the cells were incubated at room temperature for 30 minutes. The assay was stopped by adding cAMP detection mix (containing detergents for cell lysis) for 90 minutes at room temperature.
Cellular cAMP was measured using a Paradigm reader (Molecular Devices). The raw data was used to calculate the FRET signal based on the assay's P-factor as per cAMP kit instructions. The data was normalized to the maximal activity of a reference antagonist and dose response curves were fitted to the percent activity of the test compounds using a sigmoidal dose response model (Genedata Screener).
Results in the hGPR17 cAMP assay are provided for compounds of formula I in Table 1

Chain of human GPR17 short isoform (Q13304 29-367): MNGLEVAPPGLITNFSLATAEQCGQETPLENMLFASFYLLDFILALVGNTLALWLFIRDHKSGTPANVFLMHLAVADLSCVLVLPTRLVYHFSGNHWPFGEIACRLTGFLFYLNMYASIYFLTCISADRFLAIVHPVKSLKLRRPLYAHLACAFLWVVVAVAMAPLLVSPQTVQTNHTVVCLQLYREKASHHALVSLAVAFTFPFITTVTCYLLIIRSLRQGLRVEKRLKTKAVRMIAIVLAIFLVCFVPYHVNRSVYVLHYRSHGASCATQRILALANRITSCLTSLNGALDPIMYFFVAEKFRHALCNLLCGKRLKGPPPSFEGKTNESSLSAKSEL

| IC50 | SMILES |
| --- | --- |
| 19 nM | CCCc1snc(NS(=O)(=O)c2c[nH]c3cc(Cl)ccc23)c1Cl [Example 1, 6-chloro-N-(4-chloro-5-propyl-isothiazol-3-yl)-1H-indole-3-sulfonamide] |
| 51 nM | O=S(=O)(Nc1nsc(C2CC2)c1Cl)c1c[nH]c2cc(Cl)ccc12 [Example 2, 6-chloro-N-(4-chloro-5-cyclopropyl-isothiazol-3-yl)-1H-indole-3-sulfonamide] |
| 131 nM | O=S(=O)(Nc1nsc(C2CC2)c1Cl)c1c[nH]c2nc(Cl)ccc12 [Example 3, 6-chloro-N-(4-chloro-5-cyclopropyl-isothiazol-3-yl)-1H-pyrrolo[2,3-b]pyridine-3-sulfonamide] |
| 103 nM | O=S(=O)(Nc1nsc(C2CC2)c1Cl)c1c[nH]c2nc(Br)ccc12 [Example 4, 6-bromo-N-(4-chloro-5-cyclopropyl-isothiazol-3-yl)-1H-pyrrolo[2,3-b]pyridine-3-sulfonamide] |
| 106 nM | Cc1snc(NS(=O)(=O)c2c[nH]c3cc(Cl)ccc23)c1Cl [Example 5, 6-chloro-N-(4-chloro-5-methyl-isothiazol-3-yl)-1H-indole-3-sulfonamide] |
| 216 nM | Cc1snc(NS(=O)(=O)c2c[nH]c3cc(Cl)ccc23)c1C [Example 6, 6-chloro-N-(4,5-dimethylisothiazol-3-yl)-1H-indole-3-sulfonamide] |
| 452 nM | CCc1onc(NS(=O)(=O)c2c[nH]c3cc(Cl)ccc23)c1C [Example 7, 6-chloro-N-(5-ethyl-4-methyl-isoxazol-3-yl)-1H-indole-3-sulfonamide] |
| 105 nM | CCc1snc(NS(=O)(=O)c2c[nH]c3cc(Cl)ccc23)c1Cl [Example 8, 6-chloro-N-(4-chloro-5-ethyl-isothiazol-3-yl)-1H-indole-3-sulfonamide] |
| 659 nM | CCc1c(NS(=O)(=O)c2c[nH]c3cc(Cl)ccc23)nsc1C [Example 9, 6-chloro-N-(4-ethyl-5-methyl-isothiazol-3-yl)-1H-indole-3-sulfonamide] |
| 113 nM | COc1snc(NS(=O)(=O)c2c[nH]c3cc(Cl)ccc23)c1Cl [Example 10, 6-chloro-N-(4-chloro-5-methoxy-isothiazol-3-yl)-1H-indole-3-sulfonamide] |
| 54 nM | CCOc1snc(NS(=O)(=O)c2c[nH]c3cc(Cl)ccc23)c1Cl [Example 11, 6-chloro-N-(4-chloro-5-ethoxy-isothiazol-3-yl)-1H-indole-3-sulfonamide] |
| 74 nM | N#CCCc1snc(NS(=O)(=O)c2c[nH]c3cc(Cl)ccc23)c1Cl [Example 12, 6-chloro-N-[4-chloro-5-(2-cyanoethyl)isothiazol-3-yl]-1H-indole-3-sulfonamide] |
| 629 nM | Cc1cc(NS(=O)(=O)c2c[nH]c3cc(Cl)ccc23)ns1 [Example 13, 6-chloro-N-(5-methylisothiazol-3-yl)-1H-indole-3-sulfonamide] |
| 1110 nM | Cc1snc(NS(=O)(=O)c2c[nH]c3cc(Cl)ccc23)c1C1CC1 [Example 14, 6-chloro-N-(4-cyclopropyl-5-methyl-isothiazol-3-yl)-1H-indole-3-sulfonamide] |
| 499 nM | Cc1snc(NS(=O)(=O)c2c[nH]c3cc(Cl)ccc23)c1C#N [Example 15, 6-chloro-N-(4-cyano-5-methyl-isothiazol-3-yl)-1H-indole-3-sulfonamide] |
| 857 nM | COc1c(NS(=O)(=O)c2c[nH]c3cc(Cl)ccc23)nsc1C [Example 16, 6-chloro-N-(4-methoxy-5-methyl-isothiazol-3-yl)-1H-indole-3-sulfonamide] |
| 78 nM | CCCc1snc(NS(=O)(=O)c2c[nH]c3cc(Cl)ccc23)c1OC [Example 17, 6-chloro-N-(4-methoxy-5-propyl-isothiazol-3-yl)-1H-indole-3-sulfonamide] |
| 815 nM | CCCc1onc(NS(=O)(=O)c2c[nH]c3cc(Cl)ccc23)c1C [Example 18, 6-chloro-N-(4-methyl-5-propyl-isoxazol-3-yl)-1H-indole-3-sulfonamide] |
| 550 nM | Cc1onc(NS(=O)(=O)c2c[nH]c3cc(Cl)ccc23)c1C [Example 19, 6-chloro-N-(4,5-dimethylisoxazol-3-yl)-1H-indole-3-sulfonamide] |
| 404 nM | Cc1onc(NS(=O)(=O)c2c[nH]c3cc(Cl)ccc23)c1Cl [Example 20, 6-chloro-N-(4-chloro-5-methyl-isoxazol-3-yl)-1H-indole-3-sulfonamide] |
| 315 nM | Cc1onc(NS(=O)(=O)c2c[nH]c3cc(Cl)ccc23)c1Br [Example 21, N-(4-bromo-5-methyl-isoxazol-3-yl)-6-chloro-1H-indole-3-sulfonamide] |
